Measurements: PubChem BioAssay AID1919009 (Molecular Pharmacology Branch, DTP, NCI, 2023)

Tested on: K24384-001-R-PDC complex spheroid growth
Assay: Anticancer human tumor K24384-001-R-PDC patient-derived pancreatic adenocarcinoma cell line growth inhibition [AhR]
Conditions: for IC50: curve of first compound; for viability, T/C: stronger effect = lower value
Method in brief: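 Spheroids combined tumor cells with HUVEC endothelial cells and human MSCs as stroma. AhR antagonists were paired with standard or investigational drugs, each dosed in half-log steps down from near clinical Cmax, or from 10 microM where Cmax was unknown.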

[1] = second compound 0.1 µM, first compound 0.00949 µM
[2] = second compound 0.1 µM, first compound 0.03 µM
[3] = second compound 0.1 µM, first compound 0.0949 µM
[4] = second compound 0.1 µM, first compound 0.3 µM
[5] = second compound 0.1 µM, first compound 0.949 µM
[6] = second compound 0.1 µM, first compound 3 µM
[7] = second compound 0.316 µM, first compound 0.00949 µM
[8] = second compound 0.316 µM, first compound 0.03 µM
[9] = second compound 0.316 µM, first compound 0.0949 µM
[10] = second compound 0.316 µM, first compound 0.3 µM
[11] = second compound 0.316 µM, first compound 0.949 µM
[12] = second compound 0.316 µM, first compound 3 µM
[13] = second compound 1 µM, first compound 0.00949 µM
[14] = second compound 1 µM, first compound 0.03 µM
[15] = second compound 1 µM, first compound 0.0949 µM
[16] = second compound 1 µM, first compound 0.3 µM
[17] = second compound 1 µM, first compound 0.949 µM
[18] = second compound 1 µM, first compound 3 µM
[19] = second compound 3.16 µM, first compound 0.00949 µM
[20] = second compound 3.16 µM, first compound 0.03 µM
[21] = second compound 3.16 µM, first compound 0.0949 µM
[22] = second compound 3.16 µM, first compound 0.3 µM
[23] = second compound 3.16 µM, first compound 0.949 µM
[24] = second compound 3.16 µM, first compound 3 µM
[25] = second compound 10 µM, first compound 0.00949 µM
[26] = second compound 10 µM, first compound 0.03 µM
[27] = second compound 10 µM, first compound 0.0949 µM
[28] = second compound 10 µM, first compound 0.3 µM
[29] = second compound 10 µM, first compound 0.949 µM
[30] = second compound 10 µM, first compound 3 µM
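Throughout, for viability, T/C: percent of DMSO vehicle-treated spheroid viability set as 100%.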

| Structure (SMILES) | IC50 (second compound 0.1 µM) [µM] | IC50 (second compound 0.316 µM) [µM] | IC50 (second compound 1 µM) [µM] | IC50 (second compound 3.16 µM) [µM] | IC50 (second compound 10 µM) [µM] | viability, T/C [1] [%] | viability, T/C [2] [%] | viability, T/C [3] [%] | viability, T/C [4] [%] | viability, T/C [7] [%] | viability, T/C [8] [%] | viability, T/C [9] [%] | viability, T/C [10] [%] | viability, T/C [13] [%] | viability, T/C [14] [%] | viability, T/C [15] [%] | viability, T/C [16] [%] | viability, T/C [19] [%] | viability, T/C [20] [%] | viability, T/C [21] [%] | also measured |
| --- | --- | --- | --- | --- | --- | --- | --- | --- | --- | --- | --- | --- | --- | --- | --- | --- | --- | --- | --- | --- | --- |
| CCN(c1cc(-c2ccc(CN3CCOCC3)cc2)cc(C(=O)NCc2c(C)cc(C)[nH]c2=O)c1C)C1CCOCC1 + Cc1cncc(-c2nc(NCCc3c[nH]c4ccccc34)c3ncn(C(C)C)c3n2)c1 | > 3 | > 3 | > 3 | > 3 | < 0.00949 | 118 | 126 | 129 | 115 | 138 | 139 | 150 | 132 | 126 | 150 | 144 | 133 | 116 | 101 | 120 | viability, T/C [5]: 130%; viability, T/C [6]: 133%; viability, T/C [11]: 120%; viability, T/C [12]: 108%; viability, T/C [17]: 128%; viability, T/C [18]: 120%; viability, T/C [22]: 113%; viability, T/C [23]: 101%; viability, T/C [24]: 96.1%; viability, T/C [25]: 18.7%; viability, T/C [26]: 17.1%; viability, T/C [27]: 17.3%; viability, T/C [28]: 11.9%; viability, T/C [29]: 10.1%; viability, T/C [30]: 8.09% |
| Nc1ncn(C2CC(O)C(CO)S2)c(=O)n1 (stereo not given) + Cc1cncc(-c2nc(NCCc3c[nH]c4ccccc34)c3ncn(C(C)C)c3n2)c1 | > 0.3 | > 0.3 | > 0.3 | < 0.000949 | < 0.000949 | 116 | 101 | 78.1 | 73.5 | 122 | 119 | 98.1 | 84 | 177 | 129 | 111 | 96 | 43.5 | 28.2 | 29.9 | viability, T/C (second compound 0.1 µM, first compound 0.000949 µM): 122%; viability, T/C (second compound 0.1 µM, first compound 0.003 µM): 126%; viability, T/C (second compound 0.316 µM, first compound 0.000949 µM): 134%; viability, T/C (second compound 0.316 µM, first compound 0.003 µM): 137%; viability, T/C (second compound 1 µM, first compound 0.000949 µM): 173%; viability, T/C (second compound 1 µM, first compound 0.003 µM): 162%; viability, T/C (second compound 3.16 µM, first compound 0.000949 µM): 28.2%; viability, T/C (second compound 3.16 µM, first compound 0.003 µM): 38.4%; viability, T/C [22]: 27.4%; viability, T/C (second compound 10 µM, first compound 0.000949 µM): 18.1%; viability, T/C (second compound 10 µM, first compound 0.003 µM): 28.5%; viability, T/C [25]: 24.7%; viability, T/C [26]: 12.8%; viability, T/C [27]: 15.5%; viability, T/C [28]: 18.5% |
| O=C(C=Cn1cnc(-c2cc(C(F)(F)F)cc(C(F)(F)F)c2)n1)NNc1cnccn1 + Cc1cncc(-c2nc(NCCc3c[nH]c4ccccc34)c3ncn(C(C)C)c3n2)c1 | 0.209 | 0.242 | 0.229 | 0.196 | < 0.00949 | 93.8 | 94.8 | 73.2 | 39.3 | 90.8 | 95.4 | 72.6 | 45.3 | 116 | 111 | 79.6 | 40.6 | 94.9 | 90.6 | 74.7 | viability, T/C [5]: 27.4%; viability, T/C [6]: 23.6%; viability, T/C [11]: 29.2%; viability, T/C [12]: 24.8%; viability, T/C [17]: 26.4%; viability, T/C [18]: 19.9%; viability, T/C [22]: 35.1%; viability, T/C [23]: 25.1%; viability, T/C [24]: 20.4%; viability, T/C [25]: 9.12%; viability, T/C [26]: 12.6%; viability, T/C [27]: 17.1%; viability, T/C [28]: 16.6%; viability, T/C [29]: 15.1%; viability, T/C [30]: 12.8% |
